In patent publication US10308644B2, “Heterocyclic compounds as immunomodulators” (Incyte Corporation, priority 2016, dated 2019):

These molecules were tested against PD-1/PD-L1 (Homo sapiens (Human), UniProt Q9NZQ7) (assay: PD-1/PD-L1 Homogeneous Time-Resolved Fluorescence (HTRF) Binding Assay). Settings: recombinant human PD-1 (3 nM) and PD-L1 (10 nM), 25° C., PBS pH 7.4.
How it was run: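 Fc-tagged human PD-1 (25-167, 3 nM) and His-tagged PD-L1 (19-238, 10 nM) preincubated with inhibitor 40 min in PBS pH 7.4, 0.05% Tween-20, 0.1% BSA, 1% DMSO, 25 °C. Binding detected by HTRF (Eu anti-IgG/APC anti-His, 665/620 nm) after 60 min; IC50 from percent control activity.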

PD-1/PD-L1, sequence (Q9NZQ7 19-238): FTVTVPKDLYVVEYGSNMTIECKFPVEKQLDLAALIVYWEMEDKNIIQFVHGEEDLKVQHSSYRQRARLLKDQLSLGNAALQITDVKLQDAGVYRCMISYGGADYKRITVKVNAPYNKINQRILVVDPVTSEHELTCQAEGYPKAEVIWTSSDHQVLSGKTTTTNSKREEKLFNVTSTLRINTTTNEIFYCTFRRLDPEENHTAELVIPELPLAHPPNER

SMILES | IC50
Cc1c(-c2nc3c(o2)CN(C(=O)CN2CCN(C)CC2)C3)cccc1-c1cccc(-c2nc3cc(CN4CC5CC4CC5C(=O)O)cc(C#N)c3o2)c1C (stereo not shown) [Example 253, 2-((7-cyano-2-(2,2′-dimethyl-3,-(5-(2-(4-methylpiperazin-1-yl)acetyl)-5,6-dihydro-4H-pyrrolo[3,4-d]oxazol-2-yl)-[1,1′-biphenyl]-3-yl)benzo[d]oxazol-5-yl)methyl)-2-azabicyclo[2.2.1]heptane-5-carboxylic acid] | ≤ 10 nM
Cc1c(-c2nc3cc(CN4CC[C@@H](C(=O)O)C4)cc(Cl)c3o2)cccc1-c1cccc(-c2nc3c(s2)CN(C)CC3)c1C [Example 71, (R)-1-((7-chloro-2-(2,2′-dimethyl-3′-(5-methyl-4,5,6,7-tetrahydrothiazolo[5,4-c]pyridin-2-yl)-[1,1′-biphenyl]-3-yl)benzo[d]oxazol-5-yl)methyl)pyrrolidine-3-carboxylic acid] | ≤ 10 nM
Cc1c(Nc2nccc3cc(CN4CC[C@@H](O)C4)cnc23)cccc1-c1cccc(-c2nc3cc(CN[C@H]4CC[C@H](CC(=O)O)CC4)cc(C#N)c3o2)c1C [Example 184, 2-(trans-4-((7-cyano-2-(3′-(3-(((R)-3-hydroxypyrrolidin-1-yl)methyl)-1,7-naphthyridin-8-ylamino)-2,2′-dimethylbiphenyl-3-yl)benzo[d]oxazol-5-yl)methylamino)cyclohexyl)acetic acid] | ≤ 10 nM
Cc1c(Nc2nccc3cc(CN4CC[C@@H](O)C4)cnc23)cccc1-c1cccc(-c2nc3cc(CN[C@@H]4CC[C@H](C(=O)O)C4)cc(C#N)c3o2)c1C [Example 170, (1S,3R)-3-((7-cyano-2-(3′-(3-(((R)-3-hydroxypyrrolidin-1-yl)methyl)-1,7-naphthyridin-8-ylamino)-2,2′-dimethylbiphenyl-3-yl)benzo[d]oxazol-5-yl)methylamino)cyclopentanecarboxylic acid] | ≤ 10 nM
Cc1c(-c2nc3cc(CN4CC[C@@H](O)C4)cc(C#N)c3o2)cccc1-c1cccc(NC(=O)c2nc3c(n2C)CCN(C2CC(C)(C(=O)O)C2)C3)c1Cl (stereo partly drawn) [Example 263, (R)-3-(2-(2-chloro-3′-(7-cyano-5-((3-hydroxypyrrolidin-1-yl)-methyl)benzo[d]oxazol-2-yl)-2′-methylbiphenyl-3-ylcarbamoyl)-1-methyl-6,7-dihydro-1H-imidazo[4,5-c]pyridin-5(4H)-yl)-1-methylcyclobutanecarboxylic acid] | ≤ 10 nM
Cc1c(NC(=O)c2nc3c(n2C)CCN(C(C)C)C3)cccc1-c1cccc(-c2nc3cc(CN4CC[C@H](C(=O)O)C4)cc(C#N)c3o2)c1C [Example 38, (S)-1-((7-cyano-2-(3′-(5-isopropyl-1-methyl-4,5,6,7-tetrahydro-1H-imidazo[4,5-c]pyridine-2-carboxamido)-2,2′-dimethylbiphenyl-3-yl)benzo[d]oxazol-5-yl)methyl)pyrrolidine-3-carboxylic acid] | ≤ 10 nM
Cc1c(-c2nc3c(o2)CCNC3)cccc1-c1cccc(-c2nc3cc(CN4CC[C@@H](C(=O)O)C4)cc(C#N)c3o2)c1C [Example 75, (R)-1-((7-cyano-2-(2,2′-dimethyl-3′-(4,5,6,7-tetrahydrooxazolo[4,5-c]pyridin-2-yl)-[1,1′-biphenyl]-3-yl)benzo[d]oxazol-5-yl)methyl)pyrrolidine-3-carboxylic acid] | ≤ 10 nM
Cc1c(Nc2nccc3cc(CN4CC[C@@H](O)C4)cnc23)cccc1-c1cccc(-c2nc3cc(CN4CC[C@@H](C(=O)O)C4)cc(Cl)c3o2)c1C [Example 18, (R)-1-((7-chloro-2-(3′-(3-(((R)-3-hydroxypyrrolidin-1-yl)methyl)-1,7-naphthyridin-8-ylamino)-2,2′-dimethylbiphenyl-3-yl)benzo[d]oxazol-5-yl)methyl)pyrrolidine-3-carboxylic acid] | ≤ 10 nM
Cc1c(NC(=O)c2nc3c(n2C)CCN(C)C3)cccc1-c1cccc(-c2nc3cc(CN(C)CCC(=O)O)cc(Cl)c3o2)c1C [Example 42, 3-(((7-chloro-2-(3′-(1,5-dimethyl-4,5,6,7-tetrahydro-1H-imidazo[4,5-c]pyridine-2-carboxamido)-2,2′-dimethylbiphenyl-3-yl)benzo[d]oxazol-5-yl)methyl)(methyl)amino) propanoic acid] | ≤ 10 nM
Cc1c(Nc2nccc3cc(CN[C@@H](C)CO)cnc23)cccc1-c1cccc(-c2nc3cc(CN4CC[C@@H](C(=O)O)C4)cc(C#N)c3o2)c1C [Example 257, (R)-1-((7-cyano-2-(3′-(3-(((S)-1-hydroxypropan-2-ylamino)methyl)-1,7-naphthyridin-8-ylamino)-2,2′-dimethylbiphenyl-3-yl)benzo[d]oxazol-5-yl)methyl)pyrrolidine-3-carboxylic acid] | ≤ 10 nM
CCN1CCN(CC(=O)N2Cc3nc(-c4cccc(-c5cccc(-c6nc7cc(CN8CC[C@@](C)(C(=O)O)C8)cc(C#N)c7o6)c5C)c4C)sc3C2)CC1 [Example 223, (R)-1-((7-cyano-2-(3′-(5-(2-(4-ethylpiperazin-1-yl)acetyl)-5,6-dihydro-4H-pyrrolo[3,4-d]thiazol-2-yl)-2,2′-dimethylbiphenyl-3-yl)benzo[d]oxazol-5-yl)methyl)-3-methylpyrrolidine-3-carboxylic acid] | ≤ 10 nM
Cc1c(-c2nc3cc(CN4CC[C@@H](C(=O)O)C4)cc(C#N)c3o2)cccc1-c1cccc(Nc2nccc3nccnc23)c1Cl [Example 14, (R)-1-((2-(2′-chloro-2-methyl-3′-(pyrido[4,3-b]pyrazin-5-ylamino)biphenyl-3-yl)-7-cyanobenzo[d]oxazol-5-yl)methyl)pyrrolidine-3-carboxylic acid] | ≤ 10 nM
Cc1c(-c2nc3cc(CN4CCCC[C@H]4C(=O)O)cc(Cl)c3o2)cccc1-c1cccc(NC(=O)c2ccc(CNCCO)cn2)c1Cl [Example 1, (S)-1-((7-chloro-2-(2′-chloro-3′-(5-(((2-hydroxyethyl)amino)methyl)picolinamido)-2-methyl-[1,1′-biphenyl]-3-yl)benzo[d]oxazol-5-yl)methyl)piperidine-2-carboxylic acid] | ≤ 10 nM
Cc1c(Nc2ncnc3cc(CN4CC[C@@H](O)C4)cnc23)cccc1-c1cccc(-c2nc3cc(CN4CC[C@@H](C(=O)O)C4)cc(C#N)c3o2)c1C [Example 139, (R)-1-((7-cyano-2-(3′-(7-(((R)-3-hydroxypyrrolidin-1-yl)methyl)pyrido[3,2-d]pyrimidin-4-ylamino)-2,2′-dimethylbiphenyl-3-yl)benzo[d]oxazol-5-yl)methyl)pyrrolidine-3-carboxylic acid] | ≤ 10 nM
Cc1c(-c2nc3cc(CN4CC[C@@H](C(=O)O)C4)cc(Cl)c3o2)cccc1-c1cccc(-c2nc3c(s2)CN(C(C)CO)CC3)c1C (stereo partly drawn) [Example 62, (3R)-1-((7-chloro-2-(3′-(5-(1-hydroxypropan-2-yl)-4,5,6,7-tetrahydrothiazolo[5,4-c]pyridin-2-yl)-2,2′-dimethyl-[1,1′-biphenyl]-3-yl)benzo[d]oxazol-5-yl)methyl)pyrrolidine-3-carboxylic acid] | ≤ 10 nM
Cc1c(-c2nc3c(o2)CCNC3)cccc1-c1cccc(-c2nc3cc(CN4CC(C(=O)O)C4)cc(Cl)c3o2)c1C [Example 77, 1-((7-chloro-2-(2,2′-dimethyl-3′-(4,5,6,7-tetrahydrooxazolo[4,5-c]pyridin-2-yl)-[1,1′-biphenyl]-3-yl)benzo[d]oxazol-5-yl)methyl)azetidine-3-carboxylic acid] | ≤ 10 nM
